{
  "source": "patent US9532520B2",
  "about": "“Drought tolerant plants” (NUNHEMS B.V., priority 2009, dated 2017)",
  "tested_on": "tomato seedlings (Solanum lycopersicum cv. Moneymaker)",
  "assay": "Root growth assay on ½MS media containing ABA",
  "assay_type": "in vivo",
  "settings": "wild type tomato; 0, 5, 10 or 40 μM ABA; root length seven days after transfer, relative to medium without ABA",
  "description": "Seeds were sterilized as described above and sown in water containing […]. After radicle protrusion ten seeds of each line were placed on ½MS media containing either 0, 5, 10, or 40 μM ABA. The roots were measured and the plates were placed in vertical position and grown under conditions described above. Seven days after transfer the length of the root was measured again and root growth was calculated as a percentage of root growth compared to ½MS media without ABA (100%). Experiments were carried out three times and mean values plus SD are shown. Student's t-tests were performed to test for significance (p<0.05).",
  "data": [
    {"smiles": "CC1=CC(=O)CC(C)(C)[C@@]1(O)/C=C/C(C)=C\\C(=O)O", "note": "[ABA, abscisic acid]", "values": [
      {"measurement": "root growth after germination", "value": "reduced"}
    ]}
  ]
}
